Reference: patent US5378706A, “Fused-thiazole derivatives active on the cholinergic system, and pharmaceutical compositions containing same” (Sanofi, priority 1987, dated 1995)

What was measured:
[1] = test system: M1 central muscarinic cholinergic receptors; test: Antagonism of rotations induced by intrastriatal injection of pirenzepine in mice; assay type: in vivo, mice (Swiss, CD 1); details: for Pirenzepine antagonism ED50 i.p.: 15 minutes before intrastriatal pirenzepine 1 μg; for Pirenzepine antagonism ED50 p.o.: 30 minutes before intrastriatal pirenzepine 1 μg
Protocol: Pirenzepine (PZ) is a specific antagonist of the M1 central muscarinic cholinergic receptors. The intrastriatal injection of PZ into mice induces rotatory behavoir. The antagonism of this behavoir by the products according to the invention was studied.
The products according to the invention are administered either intraperitoneally (i.p.) or orally (p.o.) after solubilization in distilled water or suspension in a 5% solution of gum arabic. The control animals receive the pure solvent under the same conditions.
The animals used are female mice (Swiss, CD 1, Charles River, France) with a body weight of between 25 and 30 grams.
The pirenzepine is dissolved in a phosphate buffer and the pH of the solution is 6.
The test products or their solvents are administered in a volume of 0.4 ml per 20 g of body weight, either by i.p. injection or orally via an esophageal tube.
The number of contralateral rotations (rotations in the opposite direction to the side injected) was counted for three 2-minute periods after injection of the pirenzepine: 2nd to 4th, 8th to 10th and 13th to 15th minutes. Each treatment consists of 3 to 4 doses and 10 animals per dose. The total number of rotations and the percentage antagonism with respect to the control group are calculated for each treatment.

[2] = biological target: T1, M1 -type muscarinic cholinergic receptor (Rattus norvegicus, UniProt P08482); test: biochemical; assay type: binding; details: for IC50: rat hippocampus homogenate, 3H-PZ 1 nM, 2 hours at 4° C., pH 7.40, read-out: IC50 3H-PZ (M1); for ratio R of the IC50 values for the M1 and M2 receptors: selectivity, values correspond to IC50 M2 / IC50 M1
T1 sequence (P08482 1-460): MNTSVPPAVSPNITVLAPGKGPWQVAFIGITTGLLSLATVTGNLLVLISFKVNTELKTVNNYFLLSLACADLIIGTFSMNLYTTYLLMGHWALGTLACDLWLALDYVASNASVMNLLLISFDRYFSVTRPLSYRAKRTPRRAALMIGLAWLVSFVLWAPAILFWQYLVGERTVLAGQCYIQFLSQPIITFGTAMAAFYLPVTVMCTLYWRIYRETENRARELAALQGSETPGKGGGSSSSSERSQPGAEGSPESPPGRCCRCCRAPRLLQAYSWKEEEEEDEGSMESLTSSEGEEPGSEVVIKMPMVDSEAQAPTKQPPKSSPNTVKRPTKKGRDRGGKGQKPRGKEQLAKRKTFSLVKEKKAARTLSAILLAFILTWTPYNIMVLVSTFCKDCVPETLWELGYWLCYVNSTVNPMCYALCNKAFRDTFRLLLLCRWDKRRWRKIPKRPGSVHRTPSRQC
Protocol: The interaction of the molecules with the M1 -type muscarinic receptors was studied by in vitro measurement, on a rat hippocampus homogenate, of the displacement of tritiated pirenzepine from its specific binding sites. Aliquots (10 μl) of a 5% (w/v) rat hippocampus homogenate in an Na2 HPO4 buffer (50 mM, pH 7.40) are incubated for 2 hours at 4° C. in the presence of ^3 H-PZ (76 Ci/mmol; final concentration 1 nM) and increasing concentrations of the test product. The final volume is 2 ml. The reaction is stopped by centrifugation for 10 minutes at 50,000×g. After decantation and washing of the residues, the bound radioactivity is counted by liquid scintillation. The non-specific binding is determined in the presence of 10 μM atropine sulfate.

[3] = biological target: T2, M2 -type muscarinic cholinergic receptor (Cavia porcellus, UniProt H0VRN8); test: Affinity for the M2-type muscarinic cholinergic receptor, displacement of tritiated N-methylscopolamine (3H-NMS) on smooth guinea-pig ileum muscle homogenate; assay type: binding; details: guinea-pig ileum smooth muscle homogenate, 3H-NMS 0.3 nM, 20 minutes at 30° C., pH 7.5; read-out: IC50 3H-NMS (M2)
T2 construct: on a smooth guinea-pig ileum muscle homogenate; from tissue; host or cells: guinea-pig ileum smooth muscle homogenate
T2 sequence (H0VRN8 1-466): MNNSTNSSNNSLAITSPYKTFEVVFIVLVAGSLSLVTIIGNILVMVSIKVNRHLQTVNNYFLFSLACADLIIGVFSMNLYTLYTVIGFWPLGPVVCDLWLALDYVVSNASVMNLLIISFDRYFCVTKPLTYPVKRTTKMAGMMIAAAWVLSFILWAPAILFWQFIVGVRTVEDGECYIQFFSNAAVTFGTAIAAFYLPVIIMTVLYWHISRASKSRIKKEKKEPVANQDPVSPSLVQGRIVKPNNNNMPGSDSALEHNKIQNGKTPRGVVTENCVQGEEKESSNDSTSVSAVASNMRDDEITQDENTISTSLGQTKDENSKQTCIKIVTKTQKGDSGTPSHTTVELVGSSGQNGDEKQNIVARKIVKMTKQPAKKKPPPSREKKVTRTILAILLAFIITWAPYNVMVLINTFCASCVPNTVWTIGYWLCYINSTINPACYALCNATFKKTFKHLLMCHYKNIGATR
Protocol: The M1 -type receptors are concentrated in certain regions of the brain, such as the hippocampus, the cerebral cortex and the striatum, and also in the sympathetic ganglia. These binding sites can be selectively labeled with tritiated pirenzepine (^3 H-PZ). The M2 -type receptors predominate in the heart and the ileum and can be labeled with tritiated N-methyl-scopolamine (^3 H-NMS). The selectivity of the products of the invention with respect to the M1 and M2 sites was determined by studying their in vitro interaction with ^3 H-PZ and ^3 H-NMS firmly bound with a high affinity to rat hippocampus membranes and smooth guinea-pig ileum muscle, respectively.
The interaction with the M2 -type muscarinic receptors was studied by in vitro measurement, on a smooth guinea-pig ileum muscle homogenate, of the displacement of tritiated N-methylscopolamine from its specific binding sites. […] The final volume is 1 ml. The reaction is stopped by centrifugation for 5 minutes at 15,000×g. The non-specific binding is determined in the presence of 10 mM atropine sulfate.
The IC50 for ^3 H-PZ displacement represents the affinity for the M1 receptor; the IC50 for ^3 H-NMS displacement represents the affinity for the M2 receptor.

Row | IC50 [2] [µM] | ratio R of the IC50 values for the M1 and M2 receptors [2] | IC50 [3] [µM] | SMILES | Pirenzepine antagonism ED50 i.p. [1] [mg/kg] | Pirenzepine antagonism ED50 p.o. [1] [mg/kg]
1 | – | – | – | c1ccc(-c2cnc(NCCN3CCOCC3)s2)cc1 [SR 44285 A] | 3 | –
2 | – | – | – | c1ccc2c(c1)CCCc1sc(NCCCN3CCOCC3)nc1-2 [SR 44392 A] | 3 | –
3 | 8.1 | 12 | 100 | CCN(CC)CCNc1nc(C)cs1 [SR 44422 A] | – | –
4 | 1.5 | 46 | 70 | CCN(CC)CCCNc1nc(-c2ccccc2)c(C)s1 [SR 44434 A] | – | –
5 | 1.7 | 29 | 50 | CCN(CC)CCNc1nc(C)c(-c2ccccc2)s1 [SR 44436 A] | – | –
6 | 0.43 | 7 | 3 | CCN(CC)CCNc1nc(-c2ccccc2)c(-c2ccccc2)s1 [SR 44437 A] | – | –
7 | 1 | 60 | 60 | c1ccc(-c2cnc(NCCN3CCCC3)s2)cc1 [SR 44438 A] | – | –
8 | 6 | 13 | 80 | CCCCN(CCCC)CCNc1nc(-c2ccc(F)cc2)cs1 [SR 44451 A] | – | –
9 | 2.6 | 15 | 40 | COc1ccccc1-c1csc(NCCCN(C)C)n1 [SR 44465 A] | – | –
10 | 1.2 | 18 | 22 | CCN(CC)CCNc1nc(C23CC4CC(CC(C4)C2)C3)cs1 [SR 44468 A] | – | –
11 | 2.6 | 23 | 60 | CCN(CC)CCNc1nc(-c2ccc([N+](=O)[O-])cc2)cs1 [SR 44469 A] | – | –
12 | 1.7 | 20 | 34 | Cc1nc(NCCN2CCCC2)sc1-c1ccccc1 [SR 44488 A] | – | –
13 | 0.3 | 6 | 2 | Cc1nc(NCCN(C(C)C)C(C)C)sc1-c1ccccc1 [SR 44489 A] | – | –
14 | 1.5 | 16 | 25 | c1ccc(-c2cnc(NCCN3CCCCC3)s2)cc1 [SR 44490 A] | – | –
15 | 0.8 | 10 | 8.5 | CC(C)N(CCNc1ncc(-c2ccccc2)s1)C(C)C [SR 44491 A] | – | –
16 | 3.6 | 8 | 28 | CCCCN(CCCC)CCNc1ncc(-c2ccccc2)s1 [SR 44492 A] | – | –
17 | 0.2 | 17 | 3.4 | CCN(CC)CCCNc1nc(Cc2ccccc2)c(-c2ccccc2)s1 [SR 44515 A] | – | –
18 | 3.4 | 22 | 75 | c1ccc2cc(-c3csc(NCCN4CCCCC4)n3)ccc2c1 [SR 44516 A] | – | –
19 | 0.2 | 120 | 24 | CN(C)CCCNc1nc(C2CCCCC2)cs1 [SR 44574 A] | – | –
20 | 7 | > 14 | > 100 | c1csc(-c2csc(NCCN3CCOCC3)n2)c1 [SR 44575 A] | – | –

Row | IC50 [2] [µM] | ratio R of the IC50 values for the M1 and M2 receptors [2] | IC50 [3] [µM] | SMILES | Pirenzepine antagonism ED50 i.p. [1] [mg/kg] | Pirenzepine antagonism ED50 p.o. [1] [mg/kg]
21 | 2 | 15 | 30 | Cc1sc(NCCCN(C)C)nc1-c1ccccc1 [SR 44769 A] | – | –
22 | 0.6 | 67 | 40 | CN1CCCC1CCNc1nc(-c2ccc(F)cc2)cs1 (stereo not shown) [SR 44786 A] | – | –
23 | 5 | 8 | 40 | CN(C)CCCNc1nc(-c2cccc([N+](=O)[O-])c2)cs1 [SR 44791 A] | – | –
24 | 6 | > 17 | > 100 | Cc1cc(C)c(-c2csc(NCc3ccccn3)n2)c(C)c1 [SR 44813 A] | – | –
25 | 1.4 | 7 | – | Cc1cc(C)c(-c2csc(NCCC3CCCN3C)n2)c(C)c1 (stereo not shown) [SR 44814 A] | – | 0.2
26 | 2.4 | > 42 | > 100 | Cc1ccc(-c2csc(NCCCN(C)C)n2)cc1 [SR 44832 A] | – | –
27 | 0.6 | > 167 | > 100 | Fc1ccc(-c2csc(NCc3ccncc3)n2)cc1 [SR 44840 A] | – | –
28 | 0.28 | > 360 | > 100 | Cc1cc(C)c(-c2csc(NCc3ccncc3)n2)c(C)c1 [SR 44864 A] | – | –
29 | 6.3 | 11 | 70 | NCCCNc1nc(-c2ccc(F)cc2)cs1 [SR 44886 A, 2-[(3-Aminopropyl)amino]-4-(4-fluorophenyl)thiazole] | – | –
30 | – | – | – | Cc1cc(C)c(-c2csc(NCCCN(C(C)C)C(C)C)n2)c(C)c1 [SR 44887 A] | – | 0.3
31 | 6 | > 17 | > 100 | c1ccc(-c2nc(NCc3cccnc3)sc2-c2ccccc2)cc1 [SR 44904 A] | – | –
32 | 2.4 | 25 | 60 | Cc1cc(C)c(-c2csc(NCCc3ccccn3)n2)c(C)c1 [SR 44905 A] | – | –
33 | 2.4 | > 42 | > 100 | c1ccc(-c2nc(NCCc3ccccn3)sc2-c2ccccc2)cc1 [SR 44906 A] | – | –
34 | 0.13 | 31 | 4 | Cc1cc(C)c(-c2csc(NCCN(C(C)C)C(C)C)n2)c(C)c1 [SR 44908 A] | – | –
35 | 0.13 | 38 | 5 | CC(C)N(CCCNc1nc(-c2ccc(F)cc2F)cs1)C(C)C [SR 44916 A] | – | –
36 | – | – | – | Cc1cc(C)c(-c2csc(NCCCN)n2)c(C)c1 [SR 44949 A, 2-[(3-Aminopropyl)amino]-4-(2,4,6-trimethylphenyl)thiazole] | – | 10
37 | 0.12 | 50 | 6 | CCc1nc(NCCCN(CC)CC)sc1-c1ccccc1 [SR 44963 A] | – | –
38 | 4.5 | 22 | 100 | c1ccc(-c2cnc(NCCc3ccncc3)s2)cc1 [SR 44966 A] | – | –
39 | 1.8 | 22 | 40 | CN(C)CCCNc1ncc(-c2ccccc2)s1 [SR 44967 A] | – | –
40 | 3 | > 33 | > 100 | CC(C)(c1ccccc1)c1csc(NCc2cccnc2)n1 [SR 45106 A] | – | –
